Literature values in patent US20020016334A1, “Pharmaceutical composition for the treatment of attention deficit hyperactivity disorder (ADHD)” (priority 2000, published 2002).

Assays:
[1] = system: performance on serial choice tasks; conditions: animal studies (Muir et al. 1995)
clinical ADHD symptoms = conditions: humans (Levin et al. 1996)
working memory deficits = conditions: brain-lesioned rats (Levin et al. 1993)

In the case of `CN1CCCC1c1cccnc1` (stereo not drawn) [nicotine], the “Effect on performance on serial choice tasks” value [1] is listed as “improves performance”, the “Effect on clinical ADHD symptoms by Clinical Global Impression scale” value (clinical ADHD symptoms) is listed as “significantly improves” and the “Effect on deficits in working memory” value (working memory deficits) is listed as “reverse deficits in working memory”.
